In PMC13242511, “Disrupting Notch signalling by a small molecule inhibiting dihydroorotate dehydrogenase activity” (Scientific Reports, 2026):
Read-outs that look alike come from different tables or passages of the source. One block for each molecule: values may come before it.

Tests used:
Notch signalling = test: Notch reporter assay (12xCSL firefly luciferase / renilla luciferase, HEK293T Notch1ΔE reporter cell line clone #A1-11); format: cell-based; parameters: AUC Notch: scale not given here; settings: for Bottom (Emax): Emax indicated independent from assay constraints, in % (unit assumed); for AUC Notch: area under the 14-point dose-response curve, replicates averaged; for IC50 / activity at 10 µM / activity at 25 µM / activity: Homo sapiens, HEK-293T; for activity: 1,25µM
Excerpt: To identify novel Notch inhibitors in an unbiased manner, we generated a novel Notch reporter construct, which records the level of Notch signalling immediately downstream of receptor activation rather than further downstream in the signalling cascade, for example at the level of Hes and Hey proteins (Fig. 1B). […] The reporter construct carries piggy-bac sequences at both ends of the promoter-reporter cassette as well as cSH4 insulator elements to reduce transcriptional noise[21] and was transfected into HEK293T cells. To achieve a robust level of Notch receptor activity in the HEK293T reporter cell line and to confine the search for inhibitors to compounds affecting the receptor function and eliminating the need for ligand activation, a truncated ligand-independent version of the Notch1 receptor, mimicking an S2-cleaved Notch1 receptor (Notch1ΔE) and spontaneously activated by S3-cleavage[22] (Fig. 1C) was introduced into the cell line carrying the reporter construct (Fig. 1D). In addition, an HSV-TK-renilla luciferase plasmid was introduced into the cell line as an internal control for normalisation of the reporter expression (Fig. 1D).
A de novo Notch reporter construct, composed of six dimeric CSL binding sites linked to a basic b-globin promoter and followed by a firefly luciferase gene and a PEST degradation domain was synthesised (GeneArt). The construct was stably introduced into HEK293T cells, and zeocin (0.1 mg/ml) or Puromycin (0.05 mg/ml (ThermoFisher, cat #R25001, #A1113803) were used as selection markers. A clonal cell line (clone #A1) with robust renilla expression and enhanced firefly luciferase expression upon transient transfection of Notch1 ICD or Notch1ΔE constructs was selected, and a UB6 promoter-Notch1DE construct was stably introduced into this cell line using Blasticidin (0.1 mg/ml; ThermoFisher, cat #A1113903) as a selection marker. Stable cell lines were generated by serial dilution and only clonal colonies were selected for further evaluation. To measure luciferase reporter activity, cells were washed in cold PBS, detached, and collected in pre-warmed cell culture medium and centrifugated for five min at 200xg. The cell pellet was resuspended in medium, cells were counted, and 4,000 cells were seeded in each well of a white 384 well plate (Corning #3670) in 20 µl medium containing either DMSO or the GSI DAPT (N-[N-(3,5-Difluorophenacetyl)-L-alanyl]-S-phenylglycine t-butyl ester, Sigma-Aldrich, cat #565784-M) and incubated for 24 h. The efficacy of the reporter gene system was determined by monitoring the level of luciferase activation in the absence or presence of different amounts of DAPT in several cell clones. Luciferase activity was assessed using the dual-GLO luciferase detection kit from Promega (cat # E2920), following the manufacturer’s instructions. A minimum of two technical replicates were measured per clone using a SpectraMaxi3 plate reader (Molecular Devices). Reporter activity of different clones and in response to DAPT was assessed by normalising firefly (Notch activity) to renilla luciferase signals. Normalised signals of individual clones cultivated in DMSO were then compared to corresponding signals generated with DAPT-treated cells. The cell clone with the strongest signal to control ratio (DMSO to DAPT) was then selected for further exploration (clone #A1-11).
37,966 compounds were spotted by the compound center at SciLifeLab (https://www.scilifelab.se/) on a total of 120 plates (Greiner #781080) at a fixed concentration of 10 µM and the screening process spanned five consecutive sessions. The layout of each plate contained one column for DMSO and one for DAPT controls to determine the quality and reliability of the data. DAPT controls were spotted at 10 µM and DMSO was spotted in an equimolar volume. In addition, plates spotted with only DMSO were utilized to investigate the impact of plate effects before and after each session. […]

γ-secretase complex = γ-secretase complex (Homo sapiens, UniProt P49768); test: APP-C99 counter assay (GSI reporter assay); format: cell-based; parameters: AUC APP: scale not given here; settings: for Hill-slope / curve fit information: 14p APP assay DR; for AUC APP: area under the 14-point dose-response curve, replicates averaged; for remaining activity at 10 µM / remaining activity at 25 µM / remaining activity at […]: 24 h, APP-C99 counter assay, read-out: 3p-DR in % of DMSO counter; for remaining activity at […]: 1,25µM
Description: To this end, we used a previously established reporter gene-based GSI assay (APP-C99) (Fig. 3A), which measures γ-secretase activity through cleavage of amyloid precursor protein (APP), another protein processed by the γ-secretase complex[24]
Plasmids for APP and luciferase are described in[24] and the renilla plasmid described above generated for this project was used to normalize firefly values. 24 h post transfection cells were seeded on compound plates and cells were cultivated for 24 h before luciferase signals were read, as described.
Two-fold concentrations of compounds were diluted in 10 µl cell culture medium and brought to one-fold by seeding 10 µl containing 4000 cells of the respective cell type on each well of a 384-well plate, as described above. Analogous to the previous assays, all plates contained one DMSO and DAPT control column with the Notch reporter cell line (#A1-11) and a DMSO only and Notch inhibitor control plate was read before the measuring the screening plates. In addition, DAPT and DMSO were spotted in a dose response fashion, and a minimum of four replicates were read. Dose-responses of compounds were recorded in triplicates for each concentration reading out the dual luciferase reporters, as described above. Dose response assays were read together in one session. To measure compound effects, the different assays dose–response curves were fitted using the log(inhibitor) vs. response – Variable slope (model: Y = Bottom + (Top–Bottom)/(1 + 10^((LogIC50-X)*HillSlope)) equation.
A DMSO plate was read before measuring luciferase activity of compound spotted plates. APP firefly luciferase reporter assays were read with a signal integration time of 0.1 s, instead of 0.5 s used for the Notch reporter to reduce signal overlap between wells. […] The area-under-the-curve (AUC) was calculated on dose–response curves using Graphpad Prism.

[1] = bottom constrained to Emax of positive control LY-411575
[2] = 14p Notch assay DR, bottom constrained to Emax of positive control DAPT, read-out: approximated IC50
[3] = 14p Notch assay DR, log10 value, bottom constrained to Emax of positive control DAPT, read-out: approximated LogIC50 (converted)
[4] = 14p Notch assay DR, averaged when replicate measurements were available, read-out: averaged IC50s
[5] = 14p Notch assay DR, bottom constrained to Emax of positive control RO4929097, read-out: approximated IC50
[6] = 14p Notch assay DR, log10 value, bottom constrained to Emax of positive control RO4929097, read-out: approximated LogIC50 (converted)
[7] = 10 µM, primary screen, 24 h, unit from Fig. 2 legend, read-out: Primary screen at 10 µM (Notch reporter signal)
[8] = 10 µM, three-dose confirmation screen, unit from Fig. 2 legend, read-out: Hit confirmation at 10 µM (Notch reporter signal)
[9] = 10µM, 3-point DR confirmation screen, Notch reporter assay, read-out: inhibitor ratio in % of DMSO in 3 point DR
[10] = 10 µM, sheet conf vs counter 10 µM, same values as 3-point DR confirmation screen, read-out: Confirmation screen
[11] = 25µM, 3-point DR confirmation screen, Notch reporter assay, read-out: inhibitor ratio in % of DMSO in 3 point DR
[12] = 25 µM, Notch reporter 3-point dose-confirmation assay, sheet "conf vs counter 25 µM", read-out: Confirmation screen
[13] = 3-point DR confirmation screen, Notch reporter assay, read-out: inhibitor ratio in % of DMSO in 3 point DR
[14] = bottom constrained to Emax of positive control CB-103

Hill-slope (γ-secretase complex; [1]): -1.2
AUC APP (γ-secretase complex): 490.0
SMILES: COc1cccc(-c2nnc(NC(=O)c3ccc4c(c3)OCCO4)o2)c1 [CBK287591]
Bottom (Emax) (Notch signalling; 14p Notch assay DR): 88.3
AUC Notch (Notch signalling): 363.0

Hill-slope (γ-secretase complex; [1]): 0.274
SMILES: CC(c1nc(N)nc(Nc2ccccc2)n1)N1CCC(NC(=O)c2ccccc2)CC1 (centres unmarked) [CBK233672]

IC50 (Notch signalling; [4]): 3.2 µM
IC50 (Notch signalling; [2]): 3.5 µM
IC50 (Notch signalling; [5]): 3 µM
IC50 (Notch signalling; [3]): 3.16 µM
IC50 (Notch signalling; [6]): 3.16 µM
Hill-slope (γ-secretase complex; [14]): 0.344
Hill-slope (γ-secretase complex; [1]): -2.25e-11
curve fit information (γ-secretase complex; [1]): IC50 indeterminate
remaining activity at 10 µM (γ-secretase complex): 145%
remaining activity at 25 µM (γ-secretase complex): 135%
remaining activity at […] (γ-secretase complex): 126%
AUC APP (γ-secretase complex): 774.2
SMILES: Cc1[nH]c2cccc(C(=O)N3CCCCC3CCNC(=O)c3ccccc3)c2c1C (centres unmarked) [CBK285976]
activity at 10 µM (Notch signalling; [7]): 37.7%
activity at 10 µM (Notch signalling; [8]): 54.9%
activity at 10 µM (Notch signalling; [9]): 54.9%
activity at 10 µM (Notch signalling; [10]): 54.9%
activity at 25 µM (Notch signalling; [11]): 38.3%
activity at 25 µM (Notch signalling; [12]): 38.3%
activity (Notch signalling; [13]): 100%
AUC Notch (Notch signalling): 532.0

Hill-slope (γ-secretase complex; [1]): 0.423
SMILES: COc1ccc2cc(C(=O)N3Cc4cn(CCO)nc4C3)n(C)c2c1 [CBK306707]

Hill-slope (γ-secretase complex; [1]): 3.84e-13
curve fit information (γ-secretase complex; [1]): IC50 indeterminate
SMILES: CCn1ccc(CN(CCOC)C(=O)c2cc3c(Cl)cccc3[nH]2)n1 [CBK306903]

The remaining lines, values behind:

SMILES: CC(=O)Nc1cccc(-c2cn3ccnc3c(Nc3ccccc3)n2)c1 [CBK066160]
Bottom (Emax) (Notch signalling; 14p Notch assay DR): 87.0
AUC Notch (Notch signalling): 362.0
Hill-slope (γ-secretase complex; [1]): -4.6e-12
curve fit information (γ-secretase complex; [1]): IC50 indeterminate
AUC APP (γ-secretase complex): 549.2

SMILES: CC(=O)Nc1cccc(-c2cn3ccnc3c(Nc3cccc(OC(F)(F)C(F)F)c3)n2)c1 [CBK037499]
Bottom (Emax) (Notch signalling; 14p Notch assay DR): 77.1
IC50 (Notch signalling; [2]): > 40 µM
IC50 (Notch signalling; [3]): > 40 µM
AUC Notch (Notch signalling): 348.0
Hill-slope (γ-secretase complex; [1]): 0.0127
AUC APP (γ-secretase complex): 508.5

SMILES: COc1cc(Nc2nc(-c3ccccc3)cn3ccnc23)cc(OC)c1OC [CBK066345]
Hill-slope (γ-secretase complex; [1]): 0.0472

SMILES: COc1cccc(CNc2ccc(N3CCOCC3)cc2)c1OCc1ccccc1F [CBK074406]
IC50 (Notch signalling; [4]): 3.5 µM
IC50 (Notch signalling; [2]): 3.5 µM
IC50 (Notch signalling; [5]): 3.5 µM
IC50 (Notch signalling; [3]): 3.16 µM
IC50 (Notch signalling; [6]): 3.16 µM
activity at 10 µM (Notch signalling; [7]): 56.4%
activity at 10 µM (Notch signalling; [8]): 68%
activity at 10 µM (Notch signalling; [9]): 68%
activity at 10 µM (Notch signalling; [10]): 68%
activity at 25 µM (Notch signalling; [11]): 66.7%
activity at 25 µM (Notch signalling; [12]): 66.7%
activity (Notch signalling; [13]): 98.6%
AUC Notch (Notch signalling): 518.0
Hill-slope (γ-secretase complex; [14]): 0.00965
Hill-slope (γ-secretase complex; [1]): 0.0527
remaining activity at 10 µM (γ-secretase complex): 153%
remaining activity at 25 µM (γ-secretase complex): 158%
remaining activity at […] (γ-secretase complex): 102%
AUC APP (γ-secretase complex): 758.8

SMILES: Cc1ccccc1CN1CCC2(CC1)OCCc1c2[nH]c2ccc(F)cc12 [CBK040334]
Bottom (Emax) (Notch signalling; 14p Notch assay DR): ~ 28,93
IC50 (Notch signalling; 14-point dose-response, Fig. 4, read-out: approximated IC50, Notch reporter assay): > 5 µM
IC50 (Notch signalling; [2]): 8.9 µM
IC50 (Notch signalling; [3]): 7.94 µM
AUC Notch (Notch signalling): 607.0
Hill-slope (γ-secretase complex; [1]): 0.00509
curve fit information (γ-secretase complex; [1]): IC50 indeterminate
AUC APP (γ-secretase complex): 704.0

SMILES: O=C(O)c1cccc(-c2noc(-c3ccccc3F)n2)c1 [PTC-124, reference compound]
signal reduced by (Notch signalling; luciferase inhibitor controls in three-dose regimen (1.25, 10 and 25 µM), Supplemental Fig. 2G): 83%

SMILES: O=C(O)c1ccccc1C(=O)N1CCC2(CC1)OCCc1c2[nH]c2ccccc12 [CBK046981]
Hill-slope (γ-secretase complex; [1]): -0.0365

SMILES: COc1ccc2[nH]c3c(c2c1)CCOC31CCN(C(=O)c2cccc3cccc(C(=O)O)c23)CC1 [CBK047020]
Hill-slope (γ-secretase complex; [1]): 20.5

SMILES: COc1ccc(-c2cn3ccnc3c(Nc3cc(OC)c(OC)c(OC)c3)n2)cc1OC [CBK066261]
Hill-slope (γ-secretase complex; [1]): 0.0544

SMILES: O=C(O)c1cccc2cccc(C(=O)N3CCC4(CC3)OCCc3c4[nH]c4ccccc34)c12 [CBK047027]
Hill-slope (γ-secretase complex; [1]): -0.9

SMILES: COc1ccc2[nH]c3c(c2c1)CCOC31CCN(C(=O)c2ccccc2C(=O)O)CC1 [CBK047213]
Hill-slope (γ-secretase complex; [1]): -8.4

SMILES: O=C(O)c1cc(Cl)c(Cl)cc1C(=O)N1CCC2(CC1)OCCc1c2[nH]c2ccccc12 [CBK047019]
Hill-slope (γ-secretase complex; [1]): -0.0304
